In ChEMBL document CHEMBL2407042, “Investigation of the protein alkylation sites of the STAT3:STAT3 inhibitor Stattic by mass spectrometry” (Bioorg Med Chem Lett, 2013):
Calls of active or inactive are those of the source. No cut-off for these calls is given here.

Key:
[1] = species: Homo sapiens; assay: Binding affinity to STAT3 beta (127 to 722) (unknown origin) expressed in Escherichia coli BL21 Rosetta at 50 uM treated for 1 hr prior to trypsin digestion measured after 24 hrs by LC-MS/MS analysis in presence of ammonium bicarbonate
[2] = species: Homo sapiens; assay: Binding affinity to STAT3 beta (127 to 722) (unknown origin) expressed in Escherichia coli BL21 Rosetta at 50 uM treated for 1 hr prior to trypsin digestion measured after 24 hrs by LC-MS/MS analysis in presence of ammonium bicarbonate and acetonitrile
[3] = species: Homo sapiens; assay: Binding affinity to STAT3 beta (127 to 722) (unknown origin) expressed in Escherichia coli BL21 Rosetta at 50 uM treated for 1 hr prior to trypsin digestion measured after 24 hrs by LC-MS/MS analysis in presence of ammonium bicarbonate and guanidium HCl
[4] = species: Homo sapiens; assay: Binding affinity to STAT3 beta (127 to 722) (unknown origin) expressed in Escherichia coli BL21 Rosetta at 50 uM treated for 1 hr prior to trypsin digestion measured after 24 hrs by LC-MS/MS analysis in presence of ammonium bicarbonate and N-octyl-glucoside
[5] = species: Homo sapiens; assay: Binding affinity to STAT3 beta (127 to 722) (unknown origin) expressed in Escherichia coli BL21 Rosetta at 50 uM after 1 hr by mass spectrophotometric analysis

Activity [1]: Active
Activity [2]: Active
Activity [3]: inactive
Activity [4]: Active
Activity [5]: Active
SMILES: O=[N+]([O-])c1ccc2c(c1)S(=O)(=O)C=C2
